Experimental data from publication PMC8746705, “Comparison of Experimental Strategies to Study L-Type Amino Acid Transporter 1 (LAT1) Utilization by Ligands” (Molecules, 2021).

Tests used:
[1] = tested on: immortalized mouse microglia (BV2 cells); experiment: Cellular viability (resazurin / Alamar blue); format: cell-based; conditions: 72 h
Protocol: Immortalized microglia (BV2 cells) were seeded at the density of 10 × 10^3 cells/well onto collagen-coated 96-well plates. The cells were used for the proliferation experiments one day after seeding. The studied compounds (50 and 100 µM) were added into the growth medium and incubated for 3 days (the medium was replaced with a fresh one with studied compounds after daily measurements). Each day the cell viability was determined by the resazurin cell proliferation kit (MilliporeSigma, St. Louis, MO, USA), which is directly proportional to aerobic respiration and cellular metabolism of cells. The samples were measured fluorometrically by monitoring the increase in fluorescence at λex 560 nm and λem 590 nm with the Envision plate reader (EnVision, Perkin Elmer, Inc., Waltham, MA, USA). The cell viability was also followed by visualizing the wells with microscopy. The ability of compounds to inhibit the viability of the cells was expressed as percentages (%) compared to the untreated controls.

[2] = tested on: brain amino acids L-Leu, L-Trp, L-Tyr and L-Tyr metabolites; experiment: Brain amino acid homeostasis after i.p. dose to mice; format: in vivo; conditions: mouse brain, single i.p. dose 25 µmol/kg; for Brain 3,4-dihydroxyphenylacetic acid levels: compound 2: 2 and 4 h compared to first time point (10 min)
Protocol: Adult male mice weighing 25 ± 5 g were supplied by Envigo (Venray, Netherlands). Mice were housed in stainless steel cages on a 12 h light (07:00–19:00) and 12 h dark (19:00–07:00) cycle at an ambient temperature of 22 ± 1 °C with a relative humidity of 50–60%. All experiments were carried out during the light phase. Tap water and food pellets (Lactamin R36; Lactamin AB, Södertälje, Sweden) were available ad libitum. A dose of 25 µmol/kg of compound 1, 2, or 8–11 was given as a bolus injection (i.p.) to mice. The mice were decapitated at selected time points between (10–360 min) and brain tissues were collected for sample preparation to be analyzed by liquid chromatography-mass spectrometric (LC-MS/MS) analysis.
Brain samples were prepared similarly as described above by homogenizing the pre-weigh tissues with ultrapure water (1:3). Subsequently, 100 µL of the homogenates was taken, and the proteins were precipitated with 300 µL of ACN containing the internal standard (labetalol).
Samples were vortexed and centrifuged at 10,000× g at 4 °C for 10 min. 200 µL of supernatant was mixed with 100 µL of ultrapure water and injected to LC-MS/MS equipment described above. The amounts of three known LAT1-utilizing amino acids, L-Leu, L-Tyr, and L-Trp, and two L-Tyr metabolites, namely p-hydroxyphenylacetate and 3,4-dihydroxyphenylacetic acid, were quantified with a method described earlier. […] Data were acquired using the Agilent MassHunter Workstation Acquisition software (Data Acquisition for Triple Quadrupole Mass Spectrometer, version B.03.01) and processed and analyzed with Quantitative Analysis (B.04.00) software. The lower limit of quantification (LLOQ) for the amino acids in tissue samples was 0.1 nM for L-Leu, L-Tyr, and L-Trp and 1 nM for p-hydroxyphenylacetate and 3,4-dihydroxyphenylacetic acid. […] The concentrations of the amino acids and their metabolites were calculated from the standard curve that was prepared by spiking known amounts of compounds to ACN including the selected internal standard.

LAT1 = experiment: Quantitative expression of LAT1 on the BV2 plasma membrane (LC-MS proteomics); format: cell-based, mouse; conditions: BV2 cells incubated 24 h; normalized to Na+/K+ATPase; compared to untreated control
Protocol: The protein expression levels of LAT1, in the plasma membrane fractions of BV2 cells were quantified using multiplexed MRM analysis according to the protocol described by Uchida et al.. First, the crude membrane fractions were isolated from three distinct sets of cell culture plates using Membrane Protein Extraction Kit (BioVision Incorporated, Milpitas, CA, USA) according to the manufacturer’s instructions. The protein content for each fraction was measured by Bio-Rad Protein Assay, based on the Bradford dye-binding method (EnVision, Perkin Elmer, Inc., Waltham, MA, USA). A total amount of 50 µg protein from each fraction was solubilized/denatured in 7 M guanidine hydrochloride, 0.5 M Tris-HCl and 10 mM EDTA-Na. The proteins were then reduced by dithiothreitol (1:50, w/w) and S-carboxymethylated by iodoacetamide (1:20, w/w). The alkylated proteins were precipitated by methanol/chloroform/water (4:1:3) and centrifuged at 18,000× g for 5 min at 4 °C. The pellet was resuspended in 6 M urea and mixed for 10 min at room temperature before the dilution with 0.1 M Tris-HCl (pH 8.5) to a final concentration of 1.2 M urea, and dissolved completely by intermittent sonication (Branson 3510, Danbury, CT, USA). The dissolved proteins were first digested with LysC (1/100, w/w) and 0.05% ProteaseMax (Promega Biotech AB, Nacka, Sweden) for 3 h at room temperature. Then, the samples were spiked with 10 µL (30 fmol) of the labelled peptides for absolute quantification (JPT Peptide Technologies GmbH, Berlin, Germany) (Table S2). The samples were incubated with (1/100, w/w) TPCK-Trypsin (Promega Biotech AB, Nacka, Sweden) for 18 h at 37 °C. The tryptic digestion was then quenched by adding 40 µL of 5% formic acid. The samples were then centrifuged at 18,000× g for 5 min at 4 °C, and the supernatants were transferred to vials for analysis.
The digested peptides were analyzed using an ultra-performance liquid chromatography system coupled with a triple quadrupole mass spectrometer with a heated electrospray ionization source in the positive mode (UPLC 1290 and MSD 6495, Agilent Technologies, Santa Clara, CA, USA). A total amount of 20 µL of the digested peptides (10 µg) was separated using AdvanceBio Peptide Map 2.1 × 250 mm, 2.7 μm column (Agilent Technologies, Santa Clara, CA, USA) and LC eluents of 0.1% formic acid in water (A) and acetonitrile (B). The peptides were eluted following a constant flow rate of 0.3 mL/min and a gradient of 2–7% B for 2 min, followed by 7–30% B for 48 min, 30–45% B for 3 min, and 45–80% B for 2.5 min before re-equilibrating the column again for 4.5 min. LAT1 was quantified based on the ratio between the light and heavy standard peptides, as described previously (Table S2). Data was acquired using Agilent MassHunter Workstation Acquisition (Agilent Technologies, Data Acquisition for Triple Quadrupole, version B.03.01) and processed by using Skyline software (version 20.1). The results were normalized to a housekeeping protein Na+/K+ATPase and expressed as fmol/µg of the total amount of protein in the samples.

[3] = higher concentrations (>100 µM)

SMILES	Effect on cell viability [1, 3]	Brain p-hydroxyphenylacetate levels ([2]; after 30 min of the bolus injection compared to other time points)	LAT1 expression on the plasma membrane (LAT1)	Brain 3,4-dihydroxyphenylacetic acid levels [2]	Effect on cell viability ([1]; 50 µM)
NC(Cc1cccc(C(=O)Oc2ccc(-c3ccc(-c4ccc5c(c4)COC5=O)s3)cc2)c1)C(=O)O (stereo not shown) [Compound 1]	started to impact the cell viability	significantly lower			
C[C@H](C(=O)Nc1cccc(C[C@H](N)C(=O)O)c1)c1cccc(C(=O)c2ccccc2)c1 [Compound 2]	started to impact the cell viability		downregulated LAT1 expression	significant reduction	
C[C@H](C(=O)Oc1cccc(C[C@H](N)C(=O)O)c1)c1cccc(C(=O)c2ccccc2)c1 [Compound 4]	started to impact the cell viability				
COc1cc(C=CC(=O)NCc2cccc(CC(N)C(=O)O)c2)ccc1O (stereo not shown) [Compound 5]			downregulated LAT1 expression		
N[C@@H](Cc1cccc(NC(=O)c2ccccc2O)c1)C(=O)O [Compound 8]			did not have any effect on LAT1 expression	Not detected at all	
C[C@H](C(=O)Nc1cccc(C[C@H](N)C(=O)O)c1)c1ccc(-c2ccccc2)c(F)c1 [Compound 9]			did not have any effect on LAT1 expression		minor effects on cell viability
C[C@H](C(=O)Oc1cccc(C[C@H](N)C(=O)O)c1)c1ccc(-c2ccccc2)c(F)c1 [Compound 12]	started to impact the cell viability		did not have any effect on LAT1 expression		minor effects on cell viability
COc1ccc2cc([C@H](C)C(=O)Oc3cccc(C[C@H](N)C(=O)O)c3)ccc2c1 [Compound 15]	started to impact the cell viability				minor effects on cell viability
